The values that follow come from US5610174A, “Use of α1A -selective adrenoceptor agonists for the treatment of urinary incontinence” (priority 1995, dated 1997).

Structures are written as SMILES. Read-outs that look alike come from different tables or passages of the source.

The target of one data set is T1, human α1B adrenoceptor (Homo sapiens, UniProt P35368).
T1 construct: The entire coding region of the α1B receptor (1563 bp); expressed in transfected cells
T1 sequence (P35368 1-520): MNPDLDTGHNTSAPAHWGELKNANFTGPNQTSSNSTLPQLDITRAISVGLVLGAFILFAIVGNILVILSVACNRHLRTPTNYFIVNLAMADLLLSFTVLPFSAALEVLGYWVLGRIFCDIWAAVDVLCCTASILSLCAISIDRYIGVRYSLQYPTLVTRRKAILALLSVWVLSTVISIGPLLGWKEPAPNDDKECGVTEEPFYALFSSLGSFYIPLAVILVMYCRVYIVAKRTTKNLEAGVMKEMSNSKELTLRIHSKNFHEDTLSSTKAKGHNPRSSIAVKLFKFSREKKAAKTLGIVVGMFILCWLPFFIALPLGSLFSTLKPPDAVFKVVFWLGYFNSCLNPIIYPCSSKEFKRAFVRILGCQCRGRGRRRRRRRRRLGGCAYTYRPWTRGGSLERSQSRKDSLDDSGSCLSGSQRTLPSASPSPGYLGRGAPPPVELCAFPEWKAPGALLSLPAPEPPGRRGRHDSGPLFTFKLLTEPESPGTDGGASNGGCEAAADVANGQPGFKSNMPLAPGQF
In words: Radioligand binding ([3H]prazosin) at cloned human α1B. On the procedure: (§1) These cell lines were prepared by transfecting the cloned cDNA or cloned genomic DNA or constructs containing both genomic DNA and cDNA encoding the human α-adrenoceptors as follows:
The construct involved ligating the full-length containing EcoRI brainstem cDNA fragment from λ ZapII into the expression vector. Stable cell lines were obtained as described above.
(§2) Transfected cells from culture flasks were scraped into 5 ml of 5 mM Tris-HCl, 5 mM EDTA, pH 7.5, and lysed by sonication. The cell lysates were centrifuged at 1000 rpm. for 5 min at 4° C., and the supernatant was centrifuged at 30,000 ×g for 20 min at 4° C. The pellet was suspended in 50 mM Tris-HCl , 1 mM MgCl2, and 0.1% ascorbic acid at pH 7.5. […] The reaction was stopped by filtration through GF/B filters using a cell harvester.

In data set [1] the target is T2, dog BN, male (α1-adrenoceptor) (Canis lupus, UniProt A0A8I3NK63).
T2 sequence (A0A8I3NK63 1-466): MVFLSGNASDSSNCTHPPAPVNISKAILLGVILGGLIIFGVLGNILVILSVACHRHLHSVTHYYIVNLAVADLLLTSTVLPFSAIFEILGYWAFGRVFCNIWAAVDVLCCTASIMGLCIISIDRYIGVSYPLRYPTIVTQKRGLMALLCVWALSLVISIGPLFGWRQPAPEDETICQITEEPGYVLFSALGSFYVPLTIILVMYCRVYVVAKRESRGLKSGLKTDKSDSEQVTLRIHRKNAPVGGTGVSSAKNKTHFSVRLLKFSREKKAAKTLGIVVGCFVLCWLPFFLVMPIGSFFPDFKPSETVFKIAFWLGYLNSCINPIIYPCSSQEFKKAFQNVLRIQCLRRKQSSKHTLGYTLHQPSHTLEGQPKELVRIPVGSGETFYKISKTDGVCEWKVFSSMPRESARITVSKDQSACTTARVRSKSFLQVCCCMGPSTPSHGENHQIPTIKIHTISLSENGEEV
In words: Contractile study in isolated male dog bladder neck. As to conditions: versus phenylephrine-induced contraction. The source says:
(§3) In addition, similar studies were done using bladder neck tissue from female dogs. In order to identify the specific receptor subtype in each tissue, the pharmacological profile was compared to the profiles for these same drugs at the cloned human α1A, α1B, or α1C subtypes.
(§4) Tissue samples from the proximal urethra of male humans and male and female rabbits, as well as tissue samples from both the proximal urethra and bladder neck of male and female dogs were cut into transverse strips (3×10 mm) and suspended under 0.5 g tension in Krebs' physiological buffer at 37° C. To determine agonist potency (pEC50 )and antagonist affinity constants (pKB), concentration-effect curves to the non-selective agonist phenylepherine were constructed in the absence and in the presence of increasing concentrations of the antagonist. Up to four sequential curves were constructed in each tissue. Antagonists were allowed to equilibrate for 1h before each concentration-effect curve, and the drugs were completely washed out in between successive curves. In each experiment, one tissue served as a "time control", in which no antagonist was added so that changes in tissue sensitivity could be assessed as a function of time. […] In instances in which a single concentration of antagonist was used, pKB values were determined by the equation: […], where CR is defined as the ratio of the agonist EC50 in the presence of the antagonist to that in the absence of the antagonist.

For the next data set, the target named is T3, human α1C adrenoceptor (Homo sapiens, UniProt P35348).
T3 sequence (P35348 1-466): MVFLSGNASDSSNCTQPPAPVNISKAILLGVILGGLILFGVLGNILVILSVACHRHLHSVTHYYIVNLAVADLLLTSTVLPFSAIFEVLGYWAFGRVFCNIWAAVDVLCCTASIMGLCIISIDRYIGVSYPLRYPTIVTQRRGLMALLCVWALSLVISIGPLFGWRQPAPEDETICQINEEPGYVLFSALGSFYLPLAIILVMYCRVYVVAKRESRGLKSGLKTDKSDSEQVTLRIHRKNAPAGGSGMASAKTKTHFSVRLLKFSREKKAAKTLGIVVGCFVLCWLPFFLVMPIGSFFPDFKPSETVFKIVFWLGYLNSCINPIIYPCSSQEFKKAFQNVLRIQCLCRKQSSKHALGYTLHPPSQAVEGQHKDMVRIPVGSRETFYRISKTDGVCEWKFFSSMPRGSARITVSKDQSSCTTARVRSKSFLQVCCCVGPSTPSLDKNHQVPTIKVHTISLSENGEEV
In words: biochemical. It counts as binding. The method, then: as §1
The construct involved ligating three partial overlapping fragments: a 5' 0.6 kb HincII genomic clone, a central 1.8 EcoRI hippocampal cDNA clone, and a 3' 0.6 Kb PstI genomic clone. The hippocampal cDNA fragment overlaps with the 5' and 3' genomic clones so that the HincII and PstI sites at the 5' and 3' ends of the cDNA clone, respectively, were utilized for ligation. This full-length clone was cloned into the KpnI site of the expression vector, using the 5' and 3' KpnI sites of the fragment, derived from vector (i.e., pBluescript) and 3'-untranslated sequences, respectively. Stable cell lines were obtained as described above.
as §2

Data set [2] deals with T4, human urethra (α1-adrenoceptor) (Homo sapiens, UniProt P35348).
T4 construct: Tissue samples from the proximal urethra of male humans; from tissue; host or cells: human male proximal urethra strips
T4 sequence (P35348 1-466): T3 sequence (P35348 1-466)
In words: Contractile study in isolated human male urethra.
From the text: as §3, §4

The target in a further data set is T5, human α1A adrenoceptor (Homo sapiens, UniProt P25100).
T5 sequence (P25100 1-572): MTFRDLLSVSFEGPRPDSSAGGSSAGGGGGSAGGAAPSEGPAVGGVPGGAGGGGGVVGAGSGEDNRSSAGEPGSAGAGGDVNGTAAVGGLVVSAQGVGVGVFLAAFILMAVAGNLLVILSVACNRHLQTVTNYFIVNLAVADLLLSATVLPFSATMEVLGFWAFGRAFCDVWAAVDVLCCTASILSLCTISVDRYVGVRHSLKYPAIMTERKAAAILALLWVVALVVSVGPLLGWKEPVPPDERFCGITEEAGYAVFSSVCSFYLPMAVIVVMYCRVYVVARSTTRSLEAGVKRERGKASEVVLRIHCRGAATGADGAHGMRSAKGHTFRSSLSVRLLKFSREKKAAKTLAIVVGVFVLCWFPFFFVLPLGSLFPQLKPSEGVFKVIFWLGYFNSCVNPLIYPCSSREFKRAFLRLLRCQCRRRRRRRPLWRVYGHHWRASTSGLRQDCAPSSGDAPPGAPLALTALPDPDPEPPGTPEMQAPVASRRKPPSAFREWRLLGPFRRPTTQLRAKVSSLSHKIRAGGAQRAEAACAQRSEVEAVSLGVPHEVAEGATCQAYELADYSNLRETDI
In words: biochemical. It counts as binding. On the procedure:
as §1
The cells were grown, in a controlled environment (37° C., 5% CO2), as monolayers in Dulbecco's modified Eagle's Medium (GIBCO, Grand Island, N.Y.) containing 25 mM glucose and supplemented with 10% bovine calf serum, 100 units/ml penicillin g, and 100 μg/ml streptomycin sulfate.
as §2

Data set [3] concerns the target T6, dog BN, female (α1-adrenoceptor) (Canis lupus, UniProt A0A8I3NK63).
T6 sequence (A0A8I3NK63 1-466): T2 sequence (A0A8I3NK63 1-466)
In words: Contractile study in isolated female dog bladder neck. As to conditions: versus phenylephrine-induced contraction.
From the text: as §3, §4

Data set [4] deals with T7, rabbit urethra, male (α1-adrenoceptor) (Oryctolagus cuniculus, UniProt O02824).
T7 sequence (O02824 1-466): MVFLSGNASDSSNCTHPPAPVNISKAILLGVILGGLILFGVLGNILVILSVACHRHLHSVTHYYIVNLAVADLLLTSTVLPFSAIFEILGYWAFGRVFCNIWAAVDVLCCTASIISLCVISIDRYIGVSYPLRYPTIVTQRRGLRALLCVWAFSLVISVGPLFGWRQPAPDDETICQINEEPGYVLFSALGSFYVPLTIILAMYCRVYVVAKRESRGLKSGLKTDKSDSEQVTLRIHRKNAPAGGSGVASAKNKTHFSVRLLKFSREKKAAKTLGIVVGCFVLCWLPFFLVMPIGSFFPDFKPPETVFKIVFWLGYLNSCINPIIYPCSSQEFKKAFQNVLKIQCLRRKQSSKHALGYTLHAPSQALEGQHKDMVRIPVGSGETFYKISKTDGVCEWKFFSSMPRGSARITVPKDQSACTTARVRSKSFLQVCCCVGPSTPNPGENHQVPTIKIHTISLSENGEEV
In words: Contractile study in isolated male rabbit urethra. As to conditions: versus phenylephrine-induced contraction.
From the text: as §3, §4

The target in data set [5] is T8, rabbit urethra, female (α1-adrenoceptor) (Oryctolagus cuniculus, UniProt O02824).
T8 construct: proximal urethra of male humans and male and female rabbits; from tissue; host or cells: rabbit proximal urethra strips, male or female
T8 sequence (O02824 1-466): T7 sequence (O02824 1-466)
In words: Contractile study in isolated female rabbit urethra. Particulars: versus phenylephrine-induced contraction; read-out: pKB Rabbit Urethra Female (converted).
From the text: as §3, §4

The conditions of data set [6]: cited from earlier work; for major side effect of use in incontinence (blood pressure): dose-dependent; for major side effect of use in incontinence (blood pressure) / CNS side effects in some patients: Andersson and Sjogren, 1982; for CNS side effects in some patients: stimulant actions in the CNS, Wein, 1987.
The conditions of data set [7]: prodrug; cited from earlier work.
For data set [8] the following is noted: Andersson and Sjogren, 1982; cited from earlier work.

Take `COC(=O)C1=C(C)NC(C)=C(C(=O)OCCCN2CCC(c3ccccc3)(c3ccccc3)CC2)C1c1ccc([N+](=O)[O-])cc1.Cl` (racemic) [Compound 1, (±)-2,6-Dimethyl-4-(4-nitrophenyl)-1,4-dihydro-pyridine-3,5-dicarboxylicacid [3-(4,4-diphenylpiperidin-1-yl)propyl]ester methyl ester hydrochloride]: the results for the Ki on human α1B adrenoceptor, on human α1C adrenoceptor and on human α1A adrenoceptor were 79.4 nM, 3.16 nM and 316 nM, respectively. Besides, the “pKB Dog BN Male” value in data set [1] came to 6.2. Moreover, the Kb in data set [2] was 7.94 nM.
Regarding `COc1ccccc1N1CCN(CCN2C(=O)CC3(CCCC3)CC2=O)CC1` [BMY 7378], at human α1B adrenoceptor (Table 2, antagonists, versus 3H-prazosin, read-out: pKI (antagonist affinity, 3H-prazosin binding) hα1B (converted)), the Ki is 100 nM. Besides, the “pKB Dog BN Female” value in [3] is recorded as 6.8. For the same compound, in [1], the “pKB Dog BN Male” value stood at 7.1. In [4], the “pKB Rabbit Urethra Male” value was 6.5. The Kb in data set [5] is 794 nM.
In the case of `Clc1cccc(Cl)c1N=C1NCCN1` [clonidine], the “undesirable side effects at therapeutic doses” value in [6] (in addition to antihypertensive effect) was “dry mouth, sedation and orthostatic hypotension”.
Turning to `CN[C@@H](C)[C@H](O)c1ccccc1` [ephedrine], in data set [6], the “major side effect of use in incontinence (blood pressure)” value (from here on “major side effect of use”) is listed as “increase in blood pressure”; the “CNS side effects in some patients” value is “insomnia, anxiety and dizziness”.
Take `COc1ccc(OC)c(C(O)CNC(=O)CN)c1` (stereo not drawn) [midodrine]: the “in vivo conversion to active phenylethylamine” value in [7] is given as “converted in vivo to the active phenylethylamine ST-1059”. For the same compound, the “clinical efficacy in urinary incontinence” value in [8] is listed as “has not been demonstrated conclusively”.
Regarding `CNC[C@H](O)c1cccc(O)c1` [phenylephrine], in [6], the “major side effect of use” value is “increase in blood pressure”.
For the compound `CC(N)C(O)c1ccccc1` (stereo not drawn) [phenylpropanolamine], in data set [6], the “major side effect of use” value was “increase in blood pressure”; the “CNS side effects in some patients” value is “insomnia, anxiety and dizziness”.
